Holding throughout (format): cell-based
In test [1] the test system is A427, ASPC1 and Ls513 cancer cell lines (KRAS G12D mutation). Put plainly: cell growth inhibition in 3D suspension culture after lentiviral shRNA KRAS knockdown plus inhibitor, Bliss independence model. To be noted: for degree of synergy of cell growth inhibition (excess over Bliss): all cell lines tested. The text has this: This study explores the inhibition of a variety types (e.g., Kras G12D driven tumor cells) of cancer cells using a combination of nucleic-acid based Kras12D inhibitor and SOS inhibitor. Cell lines utilized include A427, a non-small cell lung cancer (NSCLC), ASPC1, a pancreatic cancer, and Ls513, colorectal cancer cell line. All three cell lines contain a KRAS G12D mutation. The cancer cell lines were adherently cultured in vitro and transduced with lentiviral particles packaged with shRNAs targeting either KRAS or negative control gene Luciferase.
Amphotropic lentiviruses were produced by the co-transfection of 293FT cells and were packaged using the ViraPower lentiviral expression system (ThermoFisher Scientific). Lentiviral shRNA clones targeting luciferase (as sh-Ctrl) and KRAS were obtained from Sigma in the MISSION pLKO.1-puro vector with clone IDs as follows: shKRAS #1: TRCN0000033262, NM_033360.2-509s1c1, shKRAS #2: TRCN0000033260, NM_033360.2-407s1c1, and the Luciferase shRNA control plasmid DNA (Cat #SHC007, Sigma). Viral supernatants were filtered through a 0.45 µm filter and supplemented with […] of polybrene (Sigma) and added to 70% confluent cells pre-plated in six-well dishes. Plates were spinfected for 1 h under 600×g at 37° C. centrifugation. Cells were subsequently washed with PBS and allowed to rest 48 hours in fresh culture media at 37° C. Next, cells were reseeded as 3D suspensions (ultra-low adherent plates) into 384 well plates in RPMI medium containing 10% FBS. Approximately 24 hrs later, 10 uM SOS inhibitor as described herein or DMSO (as negative control) was added to the cell cultures for a period of about 5 days. […] The degree of synergy for the combination across cell lines was calculated by using the Bliss independence model. […] The greater the departure from Bliss indicates more profound synergy: <0 is no synergism, 0.05-0.1 is mild synergy, 0.1-0.2 moderate synergy, and >0.2 is robust synergy.
Amphotropic lentiviruses were produced in the same manner as described in the preceding Example 6. 1 uM SHP2 inhibitor as described herein or DMSO (as negative control) was added to the cell cultures for a period of about 5 days. […] The degree of synergy for the combination across cell lines was calculated by using the Bliss independence model. […] The greater the departure from Bliss indicates more profound synergy: <0 is no synergism, 0.05-0.1 is mild synergy, 0.1-0.2 moderate synergy, and >0.2 is robust synergy.
Amphotropic lentiviruses were produced in the same manner as described in the preceding Example 6. […] The concentration of the respective EGFR inhibitors utilized in this cell assay was chosen to be within the range corresponding to achievable exposures and pharmacokinetics of a recommended and clinically relevant doses applied in human. […] The degree of synergy for the combination across cell lines was calculated by using the Bliss independence model as exemplified in the preceding Example 6.
Amphotropic lentiviruses were produced in the same manner as described in the preceding Example 6. 3 nM of Trametinib or DMSO (negative control) was added to the cell cultures for a period of about 5 days. The concentration of the MEK inhibitor utilized in this cell assay was chosen to be within the range corresponding to achievable exposures and pharmacokinetics of a recommended and clinical relevant dose applied in human. […] The degree of synergy for the combination across cell lines was calculated by using the Bliss independence model as exemplified in the preceding Example 6.
Amphotropic lentiviruses were produced in the same manner as described in the preceding Example 6.

Test [2] has as its system A427, ASPC1, Panc04.03, Ls174T, Ls513, AGS and HEClA cancer cell lines (KRAS G12D mutation). The experiment in a line: 3D proliferation assay (ultra-low attachment plates), small molecule Kras12D inhibitor plus second inhibitor, Bliss independence model. The following applies: for cell growth inhibition: across the cell line panel; for maximal cell growth inhibition, on average: average over cell line panel.

For test [3] the test system is unchanged. Described as above. The text has this:
This study explores the inhibition of a variety types of cancer cells (e.g., KRAS G12D driven tumor cells) using a combination of small molecule based Kras12D inhibitor and SOS inhibitor. Cell lines from multiple indications were utilized and include the A427 (a non-small cell lung cancer, “NSCLC”), ASPC1 and Panc04.03 (both pancreatic cancer), Ls174T and Ls513 (both colorectal cancer), AGS (a gastric cancer), and HEClA (an endometrial cancer cell line). All cell lines contain a KRAS G12D mutation. The seven cancer cell lines were cultured in vitro in a 3D proliferation assay where cells are grown in ultra-low attachment surface cell culture plates in RPMI medium containing ˜10% FBS. Cells were incubated with different concentrations of SOS inhibitor (e.g., 10 uM, 3 uM, or 1 uM) and with different concentrations of a Kras12D inhibitors (either Compound A, Compound B, or Compound C, e.g., 0.1 uM, 0.3 uM, 1.0 uM, 3.0 uM) for a period of 5 days. […] The degree of synergy for the combination across cell lines was calculated by using the Bliss independence model as described herein. […] The greater the departure from Bliss indicates more profound synergy: ≤0 indicates no synergism, 0.05-0.1 indicates mild synergy, 0.1-0.2 indicates moderate synergy, and >0.2 indicates robust synergy.
This study explores the inhibition of a variety types of cancer cells (e.g., KRAS G12D driven tumor cells) using a combination of small molecule based Kras12D inhibitor and SHP2 inhibitor. Cell lines from multiple indications were utilized and include the A427 (a non-small cell lung cancer, “NSCLC”), ASPC1 and Panc04.03 (both pancreatic cancer), Ls174T and Ls513 (both colorectal cancer), AGS (a gastric cancer), and HEClA (an endometrial cancer cell line). All cell lines contain a KRAS G12D mutation. The seven cancer cell lines were cultured in vitro in a 3D proliferation assay where cells are grown in ultra-low attachment surface cell culture plates in RPMI medium containing 10% FBS. Cells were incubated with different concentrations of SHP2 inhibitor (e.g., 10 uM, 3 uM, or 1 uM) and with different concentrations of a Kras12D inhibitors (either Compound A, Compound B, or Compound C, e.g., 0.1 uM, 0.3 uM, 1.0 uM, 3.0 uM) for a period of 5 days. […] The degree of synergy for the combination across cell lines was calculated by using the Bliss independence model as described in the preceding examples.
The study explores the inhibition of a variety types of cancer cells (e.g., KRAS G12D driven tumor cells) using a combination of small molecule based Kras12D inhibitor and EGFR inhibitor.

Molecules are shown by their SMILES.

Take `CC(=O)Nc1cccc(-n2c(=O)n(C3CC3)c(=O)c3c(Nc4ccc(I)cc4F)n(C)c(=O)c(C)c32)c1` [Trametinib, trametinib]: the inhibition (usually the relative decrease from the control value, in per cent) at 0.003 µM was ≤ 89% in test [1] (3 nM Trametinib in combination with nucleic-acid based Kras12D inhibitor) and < 50% in test [1] (single agent, 3 nM Trametinib). Besides, in test [2] (MEK inhibitor as single agent, across its concentration range (up to 0.01 uM)), the cell growth inhibition entry is on record as “no more than 68%”. Also, the “maximal cell growth inhibition, on average” value in test [2] (MEK inhibitor as single agent) was “about 42%”.

Take `CC(=O)c1c(C)c2cnc(Nc3ccc(N4CCNCC4)cn3)nc2n(C2CCCC2)c1=O` [palbociclib]: the cell growth inhibition entry in test [1] (0.3 uM CDK4/6 inhibitor (Palbociclib) in combination with nucleic-acid based Kras12D inhibitor) is recorded as “up to 79%”; in test [2] (CDK4/6 inhibitor (palbociclib) as single agent, across its concentration range (up to 1 uM)) it was “no more than 81%”. Besides, the “maximal cell growth inhibition, on average” value in test [2] (CDK4/6 inhibitor (palbociclib) as single agent) is given as “about 48%”.

Regarding `Cc1c(C#N)cccc1[C@@H](C)Nc1nnc(C)c2cnc(N3CCOCC3)cc12` [SOS inhibitor], the “degree of synergy of cell growth inhibition (excess over Bliss)” value in test [1] (10 uM SOS inhibitor in combination with nucleic-acid based Kras12D inhibitor (shRNA KRAS), about 5 days) is “robust (>0.2 is robust synergy)”. For the same molecule, the cell growth inhibition result in test [3] (SOS inhibitor as single agent, across its concentration range (up to 10 uM), across the cell line panel) was “no more than 50%”; in test [3] (SOS inhibitor tested alone (FIG. 12 cell lines)), “no significant cell growth inhibition”.

Regarding `Cc1nc(NC(=O)N2CCC[C@H]2C(N)=O)sc1-c1ccnc(C(C)(C)C(F)(F)F)c1` [BYL719], the cell growth inhibition entry was “up to 87%” in test [1] (0.3 uM PI3K-alpha inhibitor (BYL719) in combination with nucleic-acid based Kras12D inhibitor) and “no more than 88%” in test [2] (PI3Ka inhibitor (BYL719) as single agent, across its concentration range (up to 10 uM)). In test [1] (0.3 uM PI3K-alpha inhibitor (BYL719) in combination with nucleic-acid based Kras12D inhibitor, 5 days), the “degree of synergy of cell growth inhibition (excess over Bliss)” value is reported as “little to moderate”. Besides, the “maximal cell growth inhibition, on average” value in test [2] (PI3Ka inhibitor (BYL719) as single agent) is listed as “about 58%”.

Take `CN(C)C/C=C/C(=O)Nc1cc2c(Nc3ccc(F)c(Cl)c3)ncnc2cc1O[C@H]1CCOC1` [afatinib]: the inhibition at 0.1 µM in test [1] (0.1 uM in combination with nucleic-acid based Kras12D inhibitor, pancreatic, colorectal and NSCLC cell lines) is ≤ 75%; in test [1] (120 h, single agent, 0.1 uM, about 5 days), < 30%. In test [2] (afatinib as single agent, across its concentration range (up to 1 uM)), the cell growth inhibition result is recorded as “no more than 86%”.

Turning to `C#Cc1cccc(Nc2ncnc3cc(OCCOC)c(OCCOC)cc23)c1` [erlotinib], the inhibition at 3 µM is ≤ 75% in test [1] (3 uM in combination with nucleic-acid based Kras12D inhibitor, pancreatic, colorectal and NSCLC cell lines); < 30% in test [1] (120 h, single agent, 3 uM, about 5 days). For the same molecule, the cell growth inhibition entry in test [3] (erlotinib as single agent, across its concentration range (up to 10 uM), across the cell line panel) was “no more than 72%”. Also, in test [3] (erlotinib as single agent, average over cell line panel), the “maximal cell growth inhibition response, on average” value was “under 50%”.

For the molecule `C[C@@H]1OCC2(CCN(c3cnc(Sc4ccnc(N)c4Cl)c(N)n3)CC2)[C@@H]1N` [SHP2 inhibitor, (3S,4S)-8-(6-amino-5-((2-amino-3-chloropyridin-4-yl)thio)pyrazin-2-yl)-3-methyl-2-oxa-8-azaspiro[4.5]decan-4-amine], the “degree of synergy of cell growth inhibition (excess over Bliss)” value in test [1] (1 uM SHP2 inhibitor in combination with nucleic-acid based Kras12D inhibitor (shRNA KRAS), about 5 days) is listed as “moderate (0.1-0.2 moderate synergy)”. Moreover, the cell growth inhibition entry in test [3] (SHP2 inhibitor as single agent, across its concentration range (up to 10 uM), across the cell line panel) is listed as “no more than 75%”. Moreover, the “maximal cell growth inhibition, on average” value in test [3] (SHP2 inhibitor as single agent, average over cell line panel) was “about 36%”.

The values are drawn from US20240084305A1, “MODULATORS OF CELL PROLIFERATION AND USES THEREOF” (Kumquat Biosciences Inc., priority 2020, published 2024).
